In US12433855B2, “Method of inhibiting gram-negative bacterial quorum signalling molecules using the macrocycle pillar[5]arene” (AALTO UNIVERSITY FOUNDATION SR, priority 2018, dated 2025):
Entries after “also recorded” stand apart in the source; their conditions may differ. One block for each molecule: values may come before it.

Columns and labels:
[1] = Binding of HSLs having carbon chains of different lengths
[2] = test system: A549 cells infected with P. aeruginosa; assay: Gene expression (total RNA) of A549 cells infected with P. aeruginosa; type: cell-based, human
Method: In order to further study the influence of P[5]a on the eukaryotic cells, total RNA was isolated from A549 cells infected with P. aeruginosa in the presence or absence of 100 nM or 2.5 mM P[5]a. The expression of 46 genes were affected strongly enough to meet our stringent criteria and be considered as differentially expressed during the infection with PAO1.

[3] = test system: A549 cells; assay: CellTox Green Cytotoxicity Assay; type: cell-based, human
Method: (§1) To assess the possible toxicity of P[5]a on the lung cells, two independent viability tests were performed. First, the viability of A549 cells grown in the presence of different concentrations of P[5]a was determined using trypan blue staining. […] Subsequently, the CellTox Green Cytotoxicity Assay (Promega) was carried out for A549 cells grown with and without P[5]a, in the presence or absence of PAO1 P. aeruginosa strain. […] This was not observed for cells grown with the addition of P[5]a in the growth medium.

[4] = test system: Pseudomonas aeruginosa; assay: Pyocyanin assay; type: cell-based; settings: for production of pyocyanin: 24 hours of growth, OD695
Text: In testing the functionality of P[5]a as an actual quorum sensing inhibitor a pathogenic Gram-negative bacterium, Pserudomonas aeruginosa, which contains the LasI synthase that produces the 3-oxo-C12 HSL, was used.
P. aeruginosa utilizes multiple quorum sensing systems (Las, Rhl and Pqs). The Las system is at the top of a cascade that leads to the activation of the other quorum sensing systems, and is directly responsible for the production of the green toxin pyocyanin. Pyocyanin is a toxin produced by Pseudomonas aeruginosa, and the production is directly activated by the 3-oxo-C12 HSL. Pyocyanin is responsible for the death of cells in the lung during cystic fibrosis. Thus, the production of this toxin is related directly to the C12 Las AHL signal in a quorum-based response.
Bacterial cells were cultured for 24 hours in Luria Broth (LB) medium with […] added. Then, the culture fluid was separated from the cells and measured at OD695 (this measures the amount of green color).
In a pyocyanin assay, the effect of varying concentrations of a P[5]a (4,9,14,19,24,26,28,30,32,34-Deca[2-(trimethylaminio)ethoxy]hexacyclo[21.2.2.2^3,6.2^8,11.2^13,16.2^18,21]pentatriaconta-1(25),3,5,8,10,13,15,18,20,23,26,28,30,32,34-pentadecaene⋅10bromide, CAS No. 1351445-28-7) on the production of pyocyanin after 24 hours of growth was studied and the results are shown in FIG. 12.

[5] = test system: A549 cells; assay: Viability of A549 cells, trypan blue staining; type: cell-based, human; settings: different concentrations of P[5]a, with vs without
Method: as §1

[6] = Stability and dissolution in water; type: physicochemical

binding to N-acyl-homoserine lactones (AHLs) [1]: found to bind
Molecule: OC[C@H]1O[C@@H]2O[C@H]3[C@H](O)[C@@H](O)[C@@H](O[C@H]4[C@H](O)[C@@H](O)[C@@H](O[C@H]5[C@H](O)[C@@H](O)[C@@H](O[C@H]6[C@H](O)[C@@H](O)[C@@H](O[C@H]7[C@H](O)[C@@H](O)[C@@H](O[C@H]1[C@H](O)[C@H]2O)O[C@@H]7CO)O[C@@H]6CO)O[C@@H]5CO)O[C@@H]4CO)O[C@@H]3CO [alpha-cyclodextrin, Alpha-cyclodextrin]

binding to N-acyl-homoserine lactones (AHLs) [1]: found to bind
Molecule: C1COCCOCCOCCOCCO1 [15-crown-5, 1,4,7,10,13-Pentaoxacyclopentadecane]

binding to N-acyl-homoserine lactones (AHLs) [1]: found to bind
Molecule: O=S(=O)(O)c1cc2c(O)c(c1)Cc1cc(S(=O)(=O)O)cc(c1O)Cc1cc(S(=O)(=O)O)cc(c1O)Cc1cc(S(=O)(=O)O)cc(c1O)C2 [4-sulfocalix[4]arene, 25,26,27,28-Tetrahydroxycalix[4]arene-5,11,17,23-tetrasulfonic acid]

binding to N-acyl-homoserine lactones (AHLs) [1]: found to bind
Molecule: O=C1N2CN3C(=O)N4CN5C(=O)N6CN7C(=O)N8CN9C(=O)N%10CN%11C(=O)N%12CN1C1C2N2CN%13C(=O)N(CN%14C(=O)N(CN%15C(=O)N(CN%16C(=O)N(CN%17C(=O)N(CN1C2=O)C%12C%11%17)C%10C9%16)C8C7%15)C6C5%14)C4C3%13 (stereo not shown) [cucurbit[6]uril, Cucurbit[6]uril hydrate]

The next lines start with the molecule.

Molecule: C[N+](C)(C)CCOc1cc2c(OCC[N+](C)(C)C)cc1Cc1cc(OCC[N+](C)(C)C)c(cc1OCC[N+](C)(C)C)Cc1cc(OCC[N+](C)(C)C)c(cc1OCC[N+](C)(C)C)Cc1cc(OCC[N+](C)(C)C)c(cc1OCC[N+](C)(C)C)Cc1cc(OCC[N+](C)(C)C)c(cc1OCC[N+](C)(C)C)C2.[Br-].[Br-].[Br-].[Br-].[Br-].[Br-].[Br-].[Br-].[Br-].[Br-] [P[5]a, 4,9,14,19,24,26,28,30,32,34-Deca[2-(trimethylaminio)ethoxy]hexacyclo[21.2.2.2^3,6.2^8,11.2^13,16.2^18,21]pentatriaconta-1(25),3,5,8,10,13,15,18,20,23,26,28,30,32,34-pentadecaene⋅10bromide]
overexpression of differentially expressed genes during infection ([2]; 100 nM or 2.5 mM P[5]a, PAO1 infection): reduced the overexpression of many of the differentially expressed genes | expression of CXCL1, CXCL8, CCL20 and ICAM1 ([2]; 100 nM or 2.5 mM P[5]a, PAO1 infection, dose-dependent): significantly reduced | expression of adrenomodullin (ADM) and colony stimulating factor 2 (CSF2) ([2]; P[5]a added to infected A549 culture): further overexpression | increase in fluorescence (indicator of cell death) ([3]; A549 cells grown with P[5]a, absence of PAO1): not observed | cell death during infection with PAO1 strain ([3]; A549 cells infected with PAO1 P. aeruginosa, P[5]a in growth medium): reduction in cell death in a dose dependent manner | cellular growth ([4]; P. aeruginosa culture): not affected at all | production of pyocyanin ([4]; higher concentrations of P[5]a): complete inhibition; also recorded: completely inhibit toxin production | production of pyocyanin ([4]; no or low concentrations of P[5]a): no significant differences | viability of A549 cells (trypan blue) [5]: no significant difference | dissolution in water [6]: easily dissolved | stability [6]: very good stability | binding to N-acyl-homoserine lactones (AHLs) [1]: found to bind | selectivity of AHL binding by chain length [1]: selectively bind long-chained N-acyl-homoserine lactones

Molecule: OC[C@H]1O[C@@H]2O[C@H]3[C@H](O)[C@@H](O)[C@@H](O[C@H]4[C@H](O)[C@@H](O)[C@@H](O[C@H]5[C@H](O)[C@@H](O)[C@@H](O[C@H]6[C@H](O)[C@@H](O)[C@@H](O[C@H]7[C@H](O)[C@@H](O)[C@@H](O[C@H]8[C@H](O)[C@@H](O)[C@@H](O[C@H]9[C@H](O)[C@@H](O)[C@@H](O[C@H]1[C@H](O)[C@H]2O)O[C@@H]9CO)O[C@@H]8CO)O[C@@H]7CO)O[C@@H]6CO)O[C@@H]5CO)O[C@@H]4CO)O[C@@H]3CO [gamma-cyclodextrin, Gamma-cyclodextrin]
binding to N-acyl-homoserine lactones (AHLs) [1]: found to bind

Molecule: Resorcin[4]arene
binding to N-acyl-homoserine lactones (AHLs) [1]: found to bind
